Literature values as cited in paper PMC10572743 (International Journal of Molecular Sciences, 2023).

Test system: TNF-α production in PBMC stimulated with LPS
Details: previous research; read-out: PMBC-LPS/TNFα; cited from earlier work

Row | Compound | IC50 [µM]
1 | C=CCn1nnc2ccc3sccc3c21 [A] | 27.7
2 | COc1ccc2ccc3nnn(CCCCO)c3c2c1 [B] | 7.9
